Measured values taken from patent publication US20050239751A1, “Heterocyclic anti-viral compounds comprising metabolizable moieties and their uses” (Rigel Pharmaceuticals, Inc., priority 2004, published 2005).

The compounds below were run on HCV replicon in 5-2 Luc replicon-comprising cells (assay: HCV replicon assay (luciferase; HEPC_REPLICON-LUC)). Conditions: Hepatitis C virus; Tables 3-12; 50% reduction in luciferase emission, 5-2 Luc replicon cells; read-out: Replicon (IC50).
Format: cell-based, Hepatitis C virus
From the text: In one embodiment, the inhibitory activity of the metabolically active agent of the prodrug can be confirmed in a replicon assay that assesses the ability of a test compound to block or inhibit HCV replication in replicon cells. One example of a suitable replicon assay is the liver cell-line Huh 7-based replicon assay described in Lohmann et al., 1999, Science 285:110-113. A specific example of this replicon assay which utilizes luciferase translation is provided in the Examples Section. In one embodiment of this assay, the amount of test prodrug that yields a 50% reduction in translation as compared to a control cell (IC50) may be determined.
The inhibitory activity of certain prodrugs of the invention, which may inhibit HCV translation or replication prior to metablism and/or are metabolized into active agents, was confirmed using an HCV replicon assay. The HCV replicon can include such features as the HCV 5′ untranslated region including the HCV IRES, the HCV 3′ untranslated region, selected HCV genes encoding HCV polypeptides, selectable markers, and a reporter gene such as luciferase, GFP, etc. In the assay, actively dividing 5-2 Luc replicon-comprising cells (obtained from Ralf Bartenschlager; see Lohmann et al., 1999, Science 285:110-113) were seeded at a density of between about 5,000 and 7,500 cells/well onto 96 well plates (about 90 µl of cells per well) and incubated at 37° C. and 5% CO2 for 24 hours. Then, the test prodrug (in a volume of about 10 PI) was added to the wells at various concentrations and the cells were incubated for an additional 24-48 hours before luciferase assay. The media was aspirated from each well and Bright-Glo (Promega, Madison, WI) luciferase assay reagents were added to each well according to the manufacturer's instructions. Briefly, the BrightGlo reagent was diluted 1:1 with PBS and 100 µl of diluted reagent was added to each well. After 5 min of incubation at room temperature, luciferin emission was quantified with a luminometer. In this assay, the amount of test prodrug that yielded a 50% reduction in luciferase emission (IC50) was determined. This IC50 value may represent the antiviral activity of the prodrug itself, the activity of prodrug transformed into its active metabolized form, or a combination of the two.
In TABLES 3 through 12, a value of “+” indicates an IC50 of 10 μM or less in the specified assay; a value of “−” indicates an IC50 of greater than 10 μM in the specified assay.

Compound | IC50 [µM]
CC(C)OC(=O)C(Cl)(Cl)C(=O)Nc1cccc(-c2cc(-c3c(Cl)cccc3Cl)no2)c1 [Cpd. 16, 2′,2′-dichloro-2′-(isopropoxycarbonyl)-N-[3-[3-(2,6-dichlorophenyl)-5-isoxazoyl]phenyl] acetamide] | ≤ 10
COC(=O)C(Cl)(Cl)C(=O)Nc1cccc(-c2cc(-c3c(Cl)cccc3OC)no2)c1 [Cpd. 27, 2′,2′-dichloro-2′-(methoxycarbonyl)-N-[3-[3-(2-chloro-6-methoxyphenyl]5-isoxazoyl]phenyl] acetamide] | ≤ 10
COc1cccc(Cl)c1-c1cc(-c2cccc(N(Cc3oc(=O)oc3C)C(=O)C(Cl)Cl)c2)on1 [Cpd. 31, 2,2-dichloro-N-[3′-[3′-(2′-chloro-6′-methoxyphenyl)-5′-isoxazoyl]phenyl]-N-[(5-methyl-1,3-dioxolene-2-one-4-yl)methylene] acetamide] | ≤ 10
O=C(Nc1cccc(-c2cc(-c3c(N4CCOCC4)ccnc3Cl)no2)c1)C(Cl)(Cl)C(=O)OC1CCCCC1 [compound 52] | > 10
Cc1oc(=O)oc1CN(C(=O)C(Cl)Cl)c1cccc(-c2cc(-c3c(Cl)cccc3Cl)no2)c1 [compound 901, 2,2-dichloro-N-[3′-[3′-(2′,6′-dichlorophenyl)-5′-isoxazoyl]phenyl]N-[(5-methyl-1,3-dioxolene-2-one4-yl)methylene] acetamide] | ≤ 10
CCC(C)OC(=O)C(Cl)(Cl)C(=O)Nc1cccc(-c2cc(-c3c(Cl)cccc3Cl)no2)c1 (stereo not drawn) [Cpd. 12, 2′,2′-dichloro-2′-(sec-butoxycarbonyl)-N-[3-[3-(2,6-dichlorophenyl)-5-isoxazoyl]phenyl] acetamide] | ≤ 10
CC(C)c1oc(=O)oc1CN(C(=O)C(Cl)Cl)c1cccc(-c2cc(-c3c(Cl)ccnc3N(C)C)no2)c1 [Cpd. 35] | ≤ 10
Cc1oc(=O)oc1CN(C(=O)C(Cl)Cl)c1ccnc(-c2cc(-c3c(Cl)cccc3Cl)no2)c1 [Cpd. 41, 2,2-dichloro-N-[2′-[3′-(2′,6′-dichlorophenyl)-5′-isoxazoyl](4-pyridyl)]-N-[(5-methyl-1,3-dioxolene-2-one4-yl)methylene] acetamide] | ≤ 10
COc1cccc(Cl)c1-c1cc(-c2cccc(N(Cc3oc(=O)oc3C(C)C)C(=O)C(Cl)Cl)c2)on1 [Cpd. 37, 2,2-dichloro-N-[3′-[3′-(2′-chloro-6′-methoxyphenyl)-5′-isoxazoyl]phenyl]-N-[(5-isopropyl-1,3-dioxolene-2-one-4-yl)methylene] acetamide] | ≤ 10
CCCc1oc(=O)oc1CN(C(=O)C(Cl)Cl)c1cccc(-c2cc(-c3c(Cl)cccc3Cl)no2)c1 [Cpd. 38, 2,2-dichloro-N-[3′-[3′-(2′,6′-dichlorophenyl)-5′-isoxazoyl]phenyl]-N-[(5-n-propyl-1,3-dioxolene-2-one-4-yl)methylene] acetamide] | ≤ 10
CCOC(=O)[C@H](C)OC(=O)C(Cl)(Cl)C(=O)Nc1cccc(-c2cc(-c3c(Cl)cccc3Cl)no2)c1 [Cpd. 8, 2′,2′-dichloro-2′-(1S-ethoxycarbonyl-1-methylmethyleneoxycarbonyl)-N-[3-[3-(2,6-dichlorophenyl)-5-isoxazoyl]phenyl] acetamide] | ≤ 10
COC(=O)C(Cl)(Cl)C(=O)Nc1cccc(-c2cc(-c3ccccc3C(F)(F)F)no2)c1 [Cpd. 29, 2′,2′-dichloro-2′-(methoxycarbonyl)-N-[3-[3-(2-trifluoromethylphenyl)-5-isoxazoyl]phenyl] acetamide] | ≤ 10
COC(=O)C(Cl)(Cl)C(=O)Nc1cccc(-c2cc(-c3c(C4CC4)cccc3C(F)(F)F)no2)c1 [Cpd. 26, 2′,2′-dichloro-2′-(methoxycarbonyl)-N-[3-[3-(2-cyclopropyl-6-trifluoromethylphenyl]5-isoxazoyl]phenyl] acetamide] | ≤ 10
COC(=O)C(Cl)(Cl)C(=O)Nc1cccc(-c2cc(-c3c(F)cccc3C(F)(F)F)no2)c1 [Cpd. 30, 2′,2′-dichloro-2′-(methoxycarbonyl)-N-[3-[3-(2-fluoro-6-trifluoromethylphenyl)-5-isoxazoyl]phenyl] acetamide] | ≤ 10
CC(C)(C)OC(=O)C(Cl)(Cl)C(=O)Nc1ccnc(-c2cc(-c3c(Cl)cccc3Cl)no2)c1 [Cpd. 505] | ≤ 10
COC(=O)C(Cl)(Cl)C(=O)Nc1cccc(-c2cc(-c3c(Cl)ccnc3N(C)C)no2)c1 [Cpd. 28] | ≤ 10
CC(C)(C)c1oc(=O)oc1CN(C(=O)C(Cl)Cl)c1cccc(-c2cc(-c3c(Cl)cccc3Cl)no2)c1 [compound 1007, 2,2-dichloro-N-[3′-[3′-(2′,6′-dichlorophenyl)-5′-isoxazoyl]phenyl]-N-[(5-t-butyl-1,3-dioxolene-2-one4yl)methylene]acetamide] | ≤ 10
O=C(Nc1cccc(-c2cc(-c3c(Cl)cccc3Cl)no2)c1)C(Cl)(Cl)C(=O)N1CCOCC1 [Cpd. 50] | ≤ 10
CCOC(=O)C(Cl)(Cl)C(=O)Nc1cccc(-c2cc(-c3c(N4CCOCC4)ccnc3Cl)no2)c1 [compound 54] | > 10
CC(C)(C)OC(=O)C(Cl)(Cl)C(=O)Nc1cccc(-c2cc(-c3c(N4CCOCC4)ccnc3Cl)no2)c1 [compound 56] | > 10
CC1(C)C2CCC1(C)C(OC(=O)C(Cl)(Cl)C(=O)Nc1cccc(-c3cc(-c4c(Cl)cccc4Cl)no3)c1)C2 [Cpd. 9, 2′,2′-dichloro-2′-[(1S)-endo-borneyloxycarbonyl]-N-[3-[3-(2,6-dichlorophenyl)-5-isoxazoyl]phenyl] acetamide] | ≤ 10
CC(C)c1oc(=O)oc1CN(C(=O)C(Cl)Cl)c1cccc(-c2cc(-c3c(Cl)cccc3Cl)no2)c1 [Cpd. 34, 2,2-dichloro-N-[3′-[3′-(2′,6′-dichlorophenyl)-5′-isoxazoyl]phenyl]-N-[(5-isopropyl-1,3-dioxolene-2-one4-yl)methylene] acetamide] | ≤ 10
CCc1oc(=O)oc1CN(C(=O)C(Cl)Cl)c1cccc(-c2cc(-c3c(Cl)cccc3Cl)no2)c1 [Cpd. 40] | ≤ 10
CC(C)(C)COC(=O)C(Cl)(Cl)C(=O)Nc1cccc(-c2cc(-c3c(Cl)cccc3Cl)no2)c1 [Cpd. 14] | ≤ 10

Same assay, conditions: Table 15; read-out: Replicon (IC50)

Compound | IC50 [µM]
2′,2′-Dichloro-N-[3-[3-(2,6-dichlorophenyl)-5-isoxazolyl]phenyl]-N-[2-(4-fluorobenzoyl)ethyl] Acetamide [100a] | ≤ 10
O=C(CCN(C(=O)C(Cl)Cl)c1cccc(-c2cc(-c3c(Cl)cccc3Cl)no2)c1)c1ccc(Cl)cc1 [Cpd. 104a, 2′,2′-Dichloro-N-[3-[3-(2,6-dichlorophenyl)-5-isoxazolyl]phenyl]-N-[2-(4-chlorobenzoyl)ethyl] Acetamide] | ≤ 10
2′,2′-Dichloro-N-[3-[3-(2-chloro-6-methoxycarbonylphenyl)-5-isoxazolyl]phenyl]-N-[2-(4-fluorobenzoyl)ethyl] Acetamide [Cpd. 133a] | ≤ 10
2′,2′-Dichloro-N-[3-[3-(2-cyclopropyl-6-trifluoromethylphenyl)-5-isoxazolyl]phenyl]N-[2-(4-fluorobenzoyl)ethyl] Acetamide [Cpd. 114a] | ≤ 10
2′,2′-Dichloro-N-[3-[3-(2,6-dichlorophenyl)-5-isoxazolyl]phenyl]-N-[2-(4-methoxybenzoyl)ethyl] Acetamide [Cpd. 103a] | ≤ 10
2′,2′-Dichloro-N-[3-[3-(2-chloro-6-methoxyphenyl)-5-isoxazolyl]phenyl]-N-[2-(4-fluorobenzoyl)ethyl] Acetamide [Cpd. 113a] | ≤ 10

Same assay, conditions: Tables 3-12; 50% reduction in luciferase emission, 5-2 Luc replicon cells; read-out: Replicon (IC50)

Compound | IC50 [µM]
2′,2′-dichloro-2′-(benzyloxycarbonyl)-N-[3-[3-(2,6-dichlorophenyl)-5-isoxazoyl]phenyl] acetamide [Cpd. 17] | ≤ 10
2,2-dichloro-N-[3′-[3′-(2′-chloro-6′-tbutoxycarbonylphenyl)-5′-isoxazoyl]phenyl]-N-[(5-isopropyl-1,3-dioxolene-2-one4-yl)methylene] acetamide [Cpd. 36] | ≤ 10
CCOP(=O)(OCC)C(Cl)(Cl)C(=O)Nc1cccc(-c2cc(-c3ccccc3C(F)(F)F)no2)c1 [Cpd. 5] | ≤ 10
2′-chloro-2′-(diethoxyphosphonyl)-N-[3-[3-(2,6-dichlorophenyl)-5-isoxazoyl]phenyl] acetamide [Cpd. 1] | > 10
2′,2′-dichloro-2′-[(1R, 2S, 5Rkmenthyloxycarbonyl]-N-[3-[3-(2,6-dichlorophenyl)-5-isoxazoyl]phenyl] acetamide [Cpd. 11] | ≤ 10
2′,2′-dichloro-2′-(diisopropoxyphosphonyl)-N-[3-[3-(2,6-dichlorophenyl)-5-isoxazoyl]phenyl] acetamide [Cpd. 4] | ≤ 10
